From US20180105548A1, “A novel compound (KS-513) isolated from Pseudolysimachion rotundum var. subintegrum, the composition comprising the same preventing or treating allergic disease, inflammatory disease, asthma or chronic obstructive pulmonary disease and the use thereof” (priority 2015, published 2018)

Tests used:
iNOS = experiment: mRNA expression of iNOS in RAW264.7 cell line induced by LPS (real-time PCR); type: cell-based, mouse; details: for iNOS mRNA expression, Fold (value compared with a negative group) / iNOS mRNA expression, Inhibition ratio (IR) compared with LPS treatment group: LPS 1 μg/ml, 12 hours
Description: (§1) In order to determine the inhibitory effect on the mRNA expression of pro-inflammatory medicated enzyme such as iNOS or COX-2, and pro-inflammatory medicated cytokines such as IL-1beta, IL-6, TNF-alpha in RAW264.7 cell line induced by LPS, following test using by real-time PCR (real-time polymerase chain reaction, quantitative real time polymerase chain reaction, qPCR) was performed according to the method disclosed in the literature (Livak, K. J., Schimittgen T. D., 2001, Analysis of relative gene expression data using real-time quantitiative PCR and the 2 (-Delta Delta C(T) method, Methods 25, p 402-408):
(§2) RAW264.7 cell was inoculated into 6-well-plates in the concentration of 1×10^6 cell/well to incubate for 12 hours. Various concentration of KS-513 compound (2.5, 5, 10 and 20 μM) was pre-treated therewith and 1 μg/mL of LPS (L6529, Sigma) was added thereto to incubate for 12 hours.
(§3) To extract total RNA, RNA was extracted using by Triazol B (invitrogen) and cDNA was synthesized using by Omniscript RT kit (205113, Qiagen, Gmbh, Hilden, Germany) after the quantification. The synthesized cDNA was mixed with its template and the primers shown in Table 3 (SEQ.I.D. 1-14), performed to denaturation at 94° C. for 5 mins using by PCR mix (PCR master Mix, Bioneer, Korea), and reacted as follows: 1 cycle for pre-denaturation; at 95° C. for 30 sec, 60° C. for 45 sec, 72° C. for 45 sec, 30 cycles for denaturation; 10 mins at 72° C., 1cycle for final extension. (FIG. 2)

COX-2 [1] = experiment: mRNA expression of COX-2 in RAW264.7 cell line induced by LPS (real-time PCR); type: cell-based, mouse; details: for COX-2 mRNA expression, Fold (value compared with a negative group) / COX-2 mRNA expression, Inhibition ratio (IR) compared with LPS treatment group: LPS 1 μg/ml, 12 hours
Description: as §1, §2, §3

COX-2 [2] = experiment: COX-2 protein expression in RAW264.7 cell induced by LPS (Western blot); type: cell-based, mouse; details: LPS 1 μg/ml, FIG. 4A
Description: (§4) In order to determine the inhibitory effect on the COX-2 protein expression and the reproduced level of PGE2, following test was performed by the method disclosed in the literature (Chen, C, et al., 1999, Involvement of p 38 mitogen-activated protein kinase in lipopolysaccharide-induced iNOS and COX-2 expression in J774 macrophage, Immunology, 97, pp 124-129)
The expressed level of COX-2 in RAW264.7 cell induced by LPS (1 μg/ml) was determined by using Western blot analysis according to the method disclosed in Experimental Example 3.

PGE2 = PGE2 production in LPS-treated RAW264.7 cell (EIA); type: cell-based, mouse; details: for PGE2 production (relative % comparing with LPS treatment group) / PGE2 production, Inhibitory ratio (%): LPS 1 μg/mL, 24 hours
Description: as §4
RAW264.7 cell was inoculated into 96 well plates in the concentration of 1×10^5 cell/well to incubate for 18 hours. Various concentration of KS-513 compound (2.5, 5, 10 and 20 μM) was pre-treated therewith and 1 μg/mL of LPS (L6529, Sigma) was added thereto to incubate for 24 hours. The PGE2 level in the cell was determined by Enzyme immunoassay (EIA; Amersham Pharmacia) system and the result was shown in FIG. 4A, 4B and Table 6.

IL-6 = IL-6 production in LPS-treated RAW264.7 cell (ELISA); type: cell-based, mouse; details: for IL-6 production (relative % comparing with LPS treatment group) / IL-6 production, Inhibitory ratio (%): LPS 1 μg/mL, 24 hours
Description: (§5) RAW264.7 cell was inoculated into 96 well plates in the concentration of 1×10^5 cell/well to incubate for 18 hours. Various concentration of KS-513 compound (2.5, 5, 10 and 20 μM) was pre-treated therewith and 1 μg/mL of LPS (L6529, Sigma) was added thereto to incubate for 24 hours. The level of inflammatory cytokines such as IL-1beta, IL-6, TNF-alpha etc in the cell medium was determined by ELISA kit (IL-1beta:559603, IL-6:555240, TNF-alpha:5558534, BD) and the result was shown in FIG. 5 and Table 7-9.

TNF-alpha = TNF-alpha production in LPS-treated RAW264.7 cell (ELISA); type: cell-based, mouse; details: for TNF-alpha production (relative % comparing with LPS treatment group) / TNF-alpha production, Inhibitory ratio (%): LPS 1 μg/mL, 24 hours
Description: as §5

IL-1beta = IL-1beta production in LPS-treated RAW264.7 cell (ELISA); type: cell-based, mouse; details: for IL-1beta production (relative % comparing with LPS treatment group) / IL-1beta production, Inhibitory ratio (%): LPS 1 μg/mL, 24 hours
Description: as §5

[3] = Acute toxicity test of oral administration in rat; details: Sprague-Dawley, in vivo
Description: The acute toxicity test was performed by administrating inventive compound to 6-weeks aged SPF Sprague-Dawley rats.
After administrating the extract or compounds, all the clinical changes i.e., mortality, clinical signs, body weight changes was observed and blood test such as haematological test and hematological biochemistry test was performed. The abnormal changes of abdominal organ and thoracic organ were observed after autopsy.

[4] = various concentration, compared with control group treated with LPS (100%)
[5] = vs LPS treatment group (1 μg/ml), FIG. 5

## CO[C@@H]1C[C@H]2[C@H](OC(=O)c3ccc(O)cc3)[C@@H]3O[C@]3(CO)[C@H]2[C@H](O[C@@H]2O[C@H](CO)[C@@H](O)C(O)[C@H]2O)O1 (stereo partly drawn) [KS-513, (1aS, 1bS,2S,4S,5aR,6S,6aS)-1a-(hydroxymethyl)-4-methoxy-2-(((2S,3R,5S,6R)-3,4,5-trihydroxy-6-(hydroxymethyl)tetrahydro-2H-pyran-2-yl)oxy)octahydrooxireno[2′,3′:4,5]cyclopenta[1,2-c]pyran-6-yl 4-hydroxybenzoate]
iNOS; 2.5 μM
  iNOS mRNA expression, Fold (value compared with a negative group): 7.25 ± 2.51 Fold
  iNOS mRNA expression, Inhibition ratio (IR) compared with LPS treatment group: 18.41%
iNOS; 5 μM
  iNOS mRNA expression, Fold (value compared with a negative group): 5.94 ± 2.91 Fold
  iNOS mRNA expression, Inhibition ratio (IR) compared with LPS treatment group: 33.09%
iNOS; 10 μM
  iNOS mRNA expression, Fold (value compared with a negative group): 2.48 ± 0.19 Fold
  iNOS mRNA expression, Inhibition ratio (IR) compared with LPS treatment group: 72.12%
iNOS; 20 μM
  iNOS mRNA expression, Fold (value compared with a negative group): 1.32 ± 0.47 Fold
  iNOS mRNA expression, Inhibition ratio (IR) compared with LPS treatment group: 85.19%
iNOS; [4]
  expressed level of mRNA of iNOS: significantly decreased in a dose dependent manner
COX-2 [1]; 2.5 μM
  COX-2 mRNA expression, Fold (value compared with a negative group): 4.72 ± 0.21 Fold
  COX-2 mRNA expression, Inhibition ratio (IR) compared with LPS treatment group: 39.91%
COX-2 [1]; 5 μM
  COX-2 mRNA expression, Fold (value compared with a negative group): 2.64 ± 0.15 Fold
  COX-2 mRNA expression, Inhibition ratio (IR) compared with LPS treatment group: 66.40%
COX-2 [1]; 10 μM
  COX-2 mRNA expression, Fold (value compared with a negative group): 1.43 ± 0.50 Fold
  COX-2 mRNA expression, Inhibition ratio (IR) compared with LPS treatment group: 81.81%
COX-2 [1]; 20 μM
  COX-2 mRNA expression, Fold (value compared with a negative group): 0.97 ± 0.38 Fold
  COX-2 mRNA expression, Inhibition ratio (IR) compared with LPS treatment group: 87.66%
COX-2 [1]; [4]
  expressed level of mRNA of COX-2: significantly decreased in a dose dependent manner
COX-2 [2]
  expressed level of COX-2 protein: reduced in a dose dependent manner
PGE2; 2.5 μM
  PGE2 production (relative % comparing with LPS treatment group): 92.68 ± 7.29%
  PGE2 production, Inhibitory ratio (%): 7.31%
PGE2; 5 μM
  PGE2 production (relative % comparing with LPS treatment group): 72.87 ± 8.78%
  PGE2 production, Inhibitory ratio (%): 27.13%
PGE2; 10 μM
  PGE2 production (relative % comparing with LPS treatment group): 51.65 ± 8.44%
  PGE2 production, Inhibitory ratio (%): 48.35%
PGE2; 20 μM
  PGE2 production (relative % comparing with LPS treatment group): 28.23 ± 4.72%
  PGE2 production, Inhibitory ratio (%): 71.77%
PGE2; based on LPS treatment (100%)
  reproduced ratio of PGE2: reduced in a dose dependent manner
IL-6; 2.5 μM
  IL-6 production (relative % comparing with LPS treatment group): 75.21 ± 2.20%
  IL-6 production, Inhibitory ratio (%): 24.79%
IL-6; 5 μM
  IL-6 production (relative % comparing with LPS treatment group): 71.34 ± 5.75%
  IL-6 production, Inhibitory ratio (%): 28.66%
IL-6; 10 μM
  IL-6 production (relative % comparing with LPS treatment group): 51.13 ± 2.31%
  IL-6 production, Inhibitory ratio (%): 48.87%
IL-6; 20 μM
  IL-6 production (relative % comparing with LPS treatment group): 39.25 ± 2.85%
  IL-6 production, Inhibitory ratio (%): 60.75%
IL-6; [5]
  level of produced IL-6: reduced in a dose dependent manner
TNF-alpha; 2.5 μM
  TNF-alpha production (relative % comparing with LPS treatment group): 97.38 ± 0.58%
  TNF-alpha production, Inhibitory ratio (%): 2.62%
TNF-alpha; 5 μM
  TNF-alpha production (relative % comparing with LPS treatment group): 86.12 ± 1.14%
  TNF-alpha production, Inhibitory ratio (%): 13.88%
TNF-alpha; 10 μM
  TNF-alpha production (relative % comparing with LPS treatment group): 68.03 ± 2.51%
  TNF-alpha production, Inhibitory ratio (%): 31.97%
TNF-alpha; 20 μM
  TNF-alpha production (relative % comparing with LPS treatment group): 58.44 ± 3.50%
  TNF-alpha production, Inhibitory ratio (%): 41.56%
TNF-alpha; [5]
  level of produced TNF-alpha: reduced in a dose dependent manner
IL-1beta; 2.5 μM
  IL-1beta production (relative % comparing with LPS treatment group): 95.17 ± 3.68%
  IL-1beta production, Inhibitory ratio (%): 4.83%
IL-1beta; 5 μM
  IL-1beta production (relative % comparing with LPS treatment group): 76.69 ± 3.40%
  IL-1beta production, Inhibitory ratio (%): 23.31%
IL-1beta; 10 μM
  IL-1beta production (relative % comparing with LPS treatment group): 61.56 ± 3.18%
  IL-1beta production, Inhibitory ratio (%): 38.44%
IL-1beta; 20 μM
  IL-1beta production (relative % comparing with LPS treatment group): 46.10 ± 2.51%
  IL-1beta production, Inhibitory ratio (%): 53.9%
IL-1beta; [5]
  level of produced IL-1beta: reduced in a dose dependent manner
[3]
  LD50 at 14 days: > 5000 mg/kg
